Test results as given in patent publication US12351570B2 (MERCK PATENT GMBH, priority 2018, dated 2025).
Like-named read-outs stand apart in the source and are kept apart here.

Tests used:
MDA-MB-231 cells = assay: Extracellular lactate production inhibition after 4 h, MDA-MB-231; settings: Homo sapiens
Method: (§1) Extracellular Lactate Production Inhibition after 4 h
(§2) Cells were plated in growth media supplemented with 10% FBS, followed by overnight recovery at 37° C., 5% CO2. […] Plates were then moved for 4 h incubation at 37° C., 5% CO2 with subsequent 20 μl media transfer to empty 384-well transparent plates. […] Plates were short-spun and measured kinetically in absorbance mode (530 nm, 12 min measurement time with 2-minute intervals between subsequent readouts at 30° C.). Differences in the signal between T8 min and T0min were normalized to vehicle (cells w/ 0.25% DMSO) and quasi-positive (LCIS buffer w/ 0.25% DMSO) controls and plotted against logarithmically-transformed test compound concentrations with fitting the 4-parameter model in GraphPad Prism software.

MIA PaCa-2 cells = assay: Extracellular lactate production inhibition after 4 h, MIA PaCa-2; settings: Homo sapiens, MIA PaCa-2, read-out: IC50 (MiaPACa)
Method: as §1, §2

SNU398 cells = assay: Extracellular lactate production inhibition after 4 h, SNU398; settings: Homo sapiens, SNU-398, read-out: IC50 (SNU-398)
Method: as §1, §2

[1] = MDA-MB-231, read-out: IC50 (MDA-MB231)

SMILES	IC50 (MDA-MB-231 cells; MDA-MB-231) [nM]	also measured
Cc1ccc2cccnc2c1S(=O)(=O)Nc1ccccc1C#Cc1cnc(C(=O)O)c2ccccc12 [Compound 208, 4-{2-[2-(7-methylquinoline-8-sulfonamido)phenyl]ethynyl}isoquinoline-1-carboxylic acid]	100 to 1000	IC50 (MDA-MB-231 cells; [1]): < 1000 nM; IC50 (MIA PaCa-2 cells): < 1000 nM; IC50 (SNU398 cells): < 1000 nM
COc1ccc(S(=O)(=O)Nc2ccccc2C#Cc2ccc(C(=O)N(C)C)nc2)c2ncccc12 [Compound 217]	1000 to 100000	IC50 (MDA-MB-231 cells; [1]): < 1000 nM; IC50 (MIA PaCa-2 cells): < 1000 nM; IC50 (SNU398 cells): < 1000 nM
O=C(O)c1ccc(C#Cc2ccccc2S(=O)(=O)Nc2cccc3cccnc23)cn1 [Compound 432, 5-(2-{2-[(quinolin-8-yl)sulfamoyl]phenyl}ethynyl)pyridine-2-carboxylic acid]	1000 to 100000	–
COc1ccccc1S(C)(=O)=Nc1ccccc1C#Cc1ccc(C(=O)O)nc1 (stereo not shown) [Compound 433, 5-[2-(2-{[(2-methoxyphenyl)(methyl)oxo-λ6-sulfanylidene]amino}phenyl)ethynyl] pyridine-2-carboxylic acid]	1000 to 100000	–
COc1cccc(S(C)(=O)=Nc2ccccc2C#Cc2ccc(C(=O)O)nc2)c1 (stereo not shown) [Compound 434, 5-[2-(2-{[(3-methoxyphenyl)(methyl)oxo-λ6-sulfanylidene]amino}phenyl)ethynyl] pyridine-2-carboxylic acid]	100 to 1000	–
Cc1cccc(S(C)(=O)=Nc2ccccc2C#Cc2ccc(C(=O)O)nc2)c1 (stereo not shown) [Compound 435, 5-[2-(2-{[methyl(3-methylphenyl)oxo-λ6-sulfanylidene]amino}phenyl)ethynyl] pyridine-2-carboxylic acid]	1000 to 100000	–
CS(=O)(=Nc1ccccc1C#Cc1ccc(C(=O)O)nc1)c1cccc(F)c1 (stereo not shown) [Compound 436, 5-[2-(2-{[(3-fluorophenyl)(methyl)oxo-λ6-sulfanylidene]amino}phenyl)ethynyl] pyridine-2-carboxylic acid]	1000 to 100000	–
CS(=O)(=Nc1ccccc1C#Cc1ccc(C(=O)O)nc1)c1ccccc1F (stereo not shown) [Compound 437, 5-[2-(2-{[(2-fluorophenyl)(methyl)oxo-λ6-sulfanylidene]amino}phenyl)ethynyl] pyridine-2-carboxylic acid]	1000 to 100000	–
Cc1ccccc1S(C)(=O)=Nc1ccccc1C#Cc1ccc(C(=O)O)nc1 (stereo not shown) [Compound 438, 5-[2-(2-{[methyl(2-methylphenyl)oxo-λ6-sulfanylidene]amino}phenyl)ethynyl] pyridine-2-carboxylic acid]	1000 to 100000	–
O=C(O)c1ccc(C#Cc2ccccc2S(=O)(=O)Nc2ccccc2)cn1 [Compound 439, 5-{2-[2-(phenylsulfamoyl)phenyl]ethynyl} pyridine-2-carboxylic acid]	1000 to 100000	–

Continued, in another order:

IC50 (MDA-MB-231 cells; MDA-MB-231) [nM]	SMILES	also measured
1000 to 100000	CN(c1ccccc1)S(=O)(=O)c1ccccc1C#Cc1ccc(C(=O)O)nc1 [Compound 440, 5-(2-{2-[methyl(phenyl)sulfamoyl]phenyl}-ethynyl)pyridine-2-carboxylic acid]	–
100 to 1000	O=C(O)c1ncc(C#Cc2ccccc2NS(=O)(=O)c2cccc3c(Cl)ccnc23)c2ccccc12 [Compound 441, 4-{2-[2-(4-chloroquinoline-8-sulfonamido)phenyl]ethynyl}iso-quinoline-1-carboxylic acid]	–
10 to 100	CCOc1ccc(S(=O)(=O)Nc2ccccc2C#Cc2cnc(C(=O)O)c3ccccc23)c2ncccc12 [Compound 442, 4-{2-[2-(5-ethoxyquinoline-8-sulfonamido)phenyl]ethynyl}iso-quinoline-1-carboxylic acid]	–
1000 to 100000	NCCOCCOCCOCCOc1ccnc2c(S(=O)(=O)Nc3ccccc3C#Cc3cnc(C(=O)O)c4ccccc34)cccc12 [Compound 443, 4-(2-{2-[4-(2-{2-[2-(2-aminoethoxy)ethoxy]ethoxy}ethoxy)quinoline-8-sulfonamido]phenyl}-ethynyl)isoquinoline-1-carboxylic acid]	–
1000 to 100000	Cc1ccc2cccc(S(=O)(=O)Nc3ccccc3C#Cc3cnc(C(=O)O)c4ccccc34)c2n1 [Compound 444, 4-{2-[2-(2-methylquinoline-8-sulfonamido)phenyl]ethynyl}iso-quinoline-1-carboxylic acid]	–
1000 to 100000	CCc1ccc2cccnc2c1S(=O)(=O)Nc1ccccc1C#Cc1cnc(C(=O)O)c2ccccc12 [Compound 445, 4-{2-[2-(7-ethylquinoline-8-sulfonamido)phenyl]ethynyl}iso-quinoline-1-carboxylic acid]	–
100 to 1000	Cc1cc(C)c2cccnc2c1S(=O)(=O)Nc1ccccc1C#Cc1cnc(C(=O)O)c2ccccc12 [Compound 446, 4-{2-[2-(5,7-dimethylquinoline-8-sulfonamido)phenyl]ethynyl}iso-quinoline-1-carboxylic acid]	–
100 to 1000	CC(C)Oc1ccc(S(=O)(=O)Nc2ccccc2C#Cc2cnc(C(=O)O)c3ccccc23)c2ncccc12 [Compound 447, 4-(2-{2-[5-(propan-2-yloxy)quinoline-8-sulfonamido]phenyl}ethynyl)iso-quinoline-1-carboxylic acid]	–
100 to 1000	CS(=O)(=Nc1ccccc1C#Cc1cnc(C(=O)O)c2ccccc12)c1cccc2cccnc12 (stereo not shown) [Compound 448, 4-[2-(2-{[methyl(oxo)(quinolin-8-yl)-λ6-sulfanylidene]amino}phenyl)ethynyl]-isoquinoline-1-carboxylic acid]	–
1000 to 100000	COc1ccc(S(C)(=O)=Nc2ccccc2C#Cc2cnc(C(=O)O)c3ccccc23)cc1 (stereo not shown) [Compound 449, 4-[2-(2-{[(4-methoxyphenyl)(methyl)oxo-λ6-sulfanylidene]amino}phenyl)ethynyl]-isoquinoline-1-carboxylic acid]	–
1000 to 100000	O=C(O)c1ccc(C#Cc2ccccc2S(=O)(=O)Nc2cccc3ccccc23)cn1 [Compound 450, 5-(2-{2-[(naphthalen-1-yl)sulfamoyl]phenyl}ethynyl)pyridine-2-carboxylic acid]	–
10 to 100	CCc1cc(C#Cc2ccccc2NS(=O)(=O)c2ccc(OC)c3cccnc23)cnc1C(=O)O [Compound 451, 3-Ethyl-5-[2-(5-methoxy-quinoline-8-sulfonylamino)-phenylethynyl]-pyridine-2-carboxylic acid]	–
